We go through 7 molecules from patent US20080261986A1, “PHARMACEUTICAL FORMULATIONS FOR IONTOPHORETIC DELIVERY OF AN ANTI-FUNGAL DRUG” (priority 2007, published 2008).

What is called solubility is the dissolved amount per volume that the medium holds.

Converted amounts (≈) assume the structure as drawn. “And” between values parts separate entries of the source, which are not always exact repeats. Equal entries are not always repeated. Structures can show the parent of a compound that is named as a salt. Where two headings read alike, the source gives them in different places.

Series [1] deals with C. albicans. Kind of series: Permeation across full thickness nail (ChubTur cell), receiver fluid assayed by C. albicans growth absorbance. The format is cell-based. As to conditions: for Absorbance: replicates 1-3, full thickness human nail, C. albicans, 600 nm; for permeation across full thickness nail: all conditions tested (cathodal, anodal, passive).
The format of series [2] is in vitro ADME, human. As for the experimental part:
Prehydrated cadaver finger nails (approximately 0.5-0.7 mm thickness) or bovine hooves (approximately 0.25 mm thickness) were used for comparing different formulations as described in Examples 8-10. […] A nail adaptor was required to accommodate the curvature of the nail, but not for the hoof. The receptor compartments were filled with receiver fluid (3-5 ml water pH 3) and the drug formulations described above (0.5-2 mL) were placed in the donor compartment. […] Receptor levels of drug permeated were analyzed. Aliquots removed were replaced with an equal amount of buffer, and were assayed by HPLC to measure terbinafine HCl permeation through the nail or hoof. Control passive experiments were conducted in the same way except for the application of electric current. Nails or hooves were taken out of the FDC and drug extracted as described in Example 4. The drug loading levels in the nail or hoof were expressed as mg terbinafine HCl per g of nail or hoof. Data were expressed as means ±standard deviations. All experiments were performed in triplicate. […] The four formulations were evaluated for permeation of terbinafine HCl through the nail and loading in the nail as described in Example 8. Formulations containing benzoic acid improved permeation of terbinafine HCl through the nail over the base glycerin formulation without benzoic acid (FIG. 7A).

Series [3] in a line: Approximate visual solubility in receiver fluids. It counts as physicochemical. As for the experimental part:
The visual solubility of each receiver fluid shown in Table 3 below was initially tested for ketoconazole (BUFA B.V.) and ciclopirox (PCAS Finland Oy). Additional solubility testing was then conducted for terbinafine hydrochloride (QueMaCo Ltd.), amorolfine hydrochloride (Inter-Chemical Ltd.) and itraconazole EP (Shamrock, UK) and the results are shown in Table 3.
The solubility of terbinafine hydrochloride, fluconazole, itraconazole and amorolfine hydrochloride was determined in PBS and 5% Tween 80 and the results are summarized in Table 4.

[4] abbreviates: aqueous with cosolvent or surfactant or cyclodextrin, Approximate visual solubility.

In the case of `Cc1cc(C2CCCCC2)n(O)c(=O)c1` [Ciclopirox olamine, ciclopirox olamine], the Absorbance is 0.042 and 0.079 in series [1] (Anodal iontophoresis (1000 μA, 1 hr)); 0.048 in series [1] (Cathodal iontophoresis, controls: no C. albicans 0.037-0.039, no compound 0.126-0.160); 0.157 and 0.129 in series [1] (Passive permeation). For the same molecule, the “permeation across full thickness nail (detection in receiver fluid)” value is given as “detected in the receiver fluid” in series [1] (both cathodal and anodal iontophoresis); “not with passive delivery” in series [1] (passive delivery).
For the molecule PEG 400, the “permeation of terbinafine HCl through the nail (in words)” value in series [2] is given as “further improved the permeation of terbinafine HCl through the nail”.
For the molecule `CC(=O)N1CCN(c2ccc(OCC3COC(Cn4ccnc4)(c4ccc(Cl)cc4Cl)O3)cc2)CC1` (stereo not shown) [ketoconazole], in series [3] (PBS and 5% Tween 80), the “solubility in receiver fluid (in words)” value is recorded as “good solubility”. Besides, the solubility in series [3] (aqueous buffer, 1% Propylene glycol in PBS, read-out: Approximate visual solubility) was below 554 µg/mL; in series [3] (aqueous with cosolvent or surfactant or cyclodextrin, 20 mM B hydroxylpropyl cyclodextrin in PBS, read-out: Approximate visual solubility), below 1030 µg/mL; in series [3] (aqueous with cosolvent or surfactant or cyclodextrin, 200 mM B hydroxylpropyl cyclodextrin in PBS, read-out: Approximate visual solubility), 2120 to 2370 µg/mL (≈ 3990 to 4460 µM); in series [3] (aqueous with cosolvent or surfactant or cyclodextrin, 0.5% Tween-80 in PBS, read-out: Approximate visual solubility), below 412 µg/mL; in series [3] (aqueous with cosolvent or surfactant or cyclodextrin, 1% Tween-80 in PBS, read-out: Approximate visual solubility) it was below 458 µg/mL; in series [3] (aqueous with cosolvent or surfactant or cyclodextrin, 2% Tween-80 in PBS, read-out: Approximate visual solubility), below 646 µg/mL. Besides, the solubility was below 910 µg/mL in series [3] (aqueous with cosolvent or surfactant or cyclodextrin, 5% Ethanol in PBS, read-out: Approximate visual solubility); below 472 µg/mL in series [3] (aqueous with cosolvent or surfactant or cyclodextrin, 5% Propylene glycol in PBS, read-out: Approximate visual solubility); 1280 to 1530 µg/mL (≈ 2410 to 2880 µM) in series [3] (aqueous with cosolvent or surfactant or cyclodextrin, 5% Tween-80 in PBS, read-out: Approximate visual solubility); below 438 µg/mL in series [3] (aqueous with cosolvent or surfactant or cyclodextrin, 10% Ethanol in PBS, read-out: Approximate visual solubility); below 398 µg/mL in series [3] (aqueous with cosolvent or surfactant or cyclodextrin, 20% Ethanol in PBS, read-out: Approximate visual solubility).
Regarding `Cc1cc(C2CCCCC2)n(O)c(=O)c1` [ciclopirox], the Absorbance in series [1] (Anodal iontophoresis (1000 μA, 1 hr), listed as Ciclopirox) was 0.045 and 0.044 and 0.068; in series [1] (Cathodal iontophoresis, controls: no C. albicans 0.037-0.039, no compound 0.126-0.160, listed as Ciclopirox), 0.075 and 0.085 and 0.079; in series [1] (Passive permeation, listed as Ciclopirox), 0.075 and 0.046. Further, the “permeation across full thickness nail” value in series [1] was “appeared to penetrate the nail regardless of whether current was applied”. In addition, the “solubility in receiver fluid (in words)” value in series [3] is reported as “good solubility”. The molecule also returned a solubility in series [3] (aqueous buffer, Approximate visual solubility) below 388 µg/mL.
With `CCC(C)n1ncn(-c2ccc(N3CCN(c4ccc(OCC5COC(Cn6cncn6)(c6ccc(Cl)cc6Cl)O5)cc4)CC3)cc2)c1=O` (stereo not shown) [Itraconazole, itraconazole], the solubility in series [3] (setting [4]) was below 330 µg/mL.
On to `CCC(C)(C)c1ccc(CC(C)CN2C[C@@H](C)O[C@@H](C)C2)cc1` (stereo partly shown) [Amorolfine hydrochloride, amorolfine hydrochloride], for which the Absorbance in series [1] (Anodal iontophoresis (1000 μA, 1 hr), listed as Amorolifine, hydrochloride) is 0.54 and 0.44 and 0.40; in series [1] (Cathodal iontophoresis, controls: no C. albicans 0.037-0.039, no compound 0.126-0.160, listed as Amorolifine, hydrochloride), 0.50 and 0.54 and 0.49; in series [1] (Passive permeation, listed as Amorolifine, hydrochloride), 0.48 and 0.59 and 0.54. Also, the “permeation across full thickness nail” value in series [1] was “did not show permeation of the nail under any conditions tested”. This molecule came in with a solubility in series [3] (setting [4]) of 2050 to 2570 µg/mL.
Consider `OC(Cn1cncn1)(Cn1cncn1)c1ccc(F)cc1F` [Fluconazole, fluconazole], for which, in series [3] (aqueous with cosolvent or surfactant or cyclodextrin, PBS and 5% Tween 80 (Table 4), read-out: Approximate visual solubility), the solubility lay in the range of 1910 to 2170 µg/mL (≈ 6240 to 7090 µM).
